# Assays:
# [1] = compound: CS(=O)(=O)CCNCc1ccc(-c2ccc3ncnc(Nc4ccc(OCc5cccc(F)c5)c(Cl)c4)c3c2)o1 [Lapatinib]; conditions: max 10 µM
# How it was run: (§1)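 Cancer cell lines were plated in 1536-well plates in 7.5 μl of DMEM/F12 or RPMI with 10% FBS and kept 24 hours at 37°C and 5% CO2 before 72 hours of dosing, with final DMSO typically 0.2%. CellTiter-Glo 2.0 luminescence measured viability, scaled between blank-well and DMSO-well means. Dose responses were fitted to a two-parameter logistic curve with a non-linear mixed effects model. This fit gives the single-agent IC50.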
# [2] = compound: COc1nnc2ccc(N3CCC(c4ccc(OCCN5CCN(C)C(=O)[C@H]5C)cc4)CC3)nn12 [AZD5153]; conditions: max 1 µM
# How it was run: as §1
# [3] = compound: CC1=CN2[C@@H](C1)C=NC3=CC(=C(C=C3C2=O)OC)OCCCCCOC4=C(C=C5C(=C4)N=C[C@@H]6CC(=CN6C5=O)C)OC [SG3199]; conditions: max 0.001 µM
# How it was run: as §1
# [4] = compound: C[C@@H](c1ccc2nccn2c1)n1nnc2ncc(-c3cnn(C)c3)nc21 [Savolitinib]; conditions: max 1 µM
# How it was run: as §1
# [5] = compound: C=CCn1c(=O)c2cnc(Nc3ccc(N4CCN(C)CC4)cc3)nc2n1-c1cccc(C(C)(C)O)n1 [AZD1775]; conditions: max 3 µM
# How it was run: as §1
# [6] = compound: Cn1cnc2c(F)c(Nc3ccc(Br)cc3Cl)c(C(=O)NOCCO)cc21 [Selumetinib]; conditions: max 10 µM
# How it was run: as §1
# [7] = compound: CC1=C(C(=CC=C1)Cl)NC(=O)C2=CN=C(S2)NC3=CC(=NC(=N3)C)N4CCN(CC4)CCO [Dasatinib]; conditions: max 2 µM
# How it was run: as §1
# [8] = compound: COc1cc2ncnc(Nc3ccc(F)c(Cl)c3)c2cc1OCCCN1CCOCC1 [Gefitinib]; conditions: max 10 µM
# How it was run: as §1
# [9] = compound: CC(C)n1c(=O)n(C)c2cnc3cc(F)c(-c4ccc(OCCCN5CCCCC5)nc4)cc3c21 [AZD1390]; conditions: max 0.3 µM
# How it was run: as §1
# [10] = compound: O=C(c1cc(Cc2n[nH]c(=O)c3ccccc23)ccc1F)N1CCN(C(=O)C2CC2)CC1 [Olaparib]
# How it was run: as §1
# [11] = compound: CC1(C)CCC(CN2CCN(c3ccc(C(=O)NS(=O)(=O)c4ccc(NCC5CCOCC5)c([N+](=O)[O-])c4)c(Oc4cnc5[nH]ccc5c4)c3)CC2)=C(c2ccc(Cl)cc2)C1 [Venetoclax]; conditions: max 1 µM
# How it was run: as §1
# [12] = compound: Cc1c2c(nn1C)CSCc1cc(n(C)n1)CSc1cc(c3ccccc3c1)OCCCc1c(C(=O)O)n(C)c3c-2c(Cl)ccc13 [AZD5991]; conditions: max 1 µM
# How it was run: as §1
# [13] = compound: CCc1c2c(nc3ccc(O)cc13)-c1cc3c(c(=O)n1C2)COC(=O)[C@]3(O)CC [SN-38]; conditions: max 0.3 µM
# How it was run: as §1
# [14] = compound: CN(CC[C@H](CSC1=CC=CC=C1)NC2=C(C=C(C=C2)S(=O)(=O)NC(=O)C3=CC=C(C=C3)N4CCC(CC4)[C@H](C5=CC=CC=C5C6=CC=C(C=C6)Cl)O)S(=O)(=O)C(F)(F)F)CCO [AZD4320]; conditions: max 1 µM
# How it was run: as §1
# [15] = compound: C[C@@H](Oc1cc(-c2cnn(C3CCNCC3)c2)cnc1N)c1c(Cl)ccc(F)c1Cl [Crizotinib]; conditions: max 10 µM
# How it was run: as §1
# [16] = compound: C1CN(CCC1(C(=O)N[C@@H](CCO)C2=CC=C(C=C2)Cl)N)C3=NC=NC4=C3C=CN4 [Capivasertib]
# How it was run: as §1
# [17] = compound: CN(C)CCCOc1ccc(-c2ccc3ncc4c(c3c2)n(C2CCOCC2)c(=O)n4C)cn1 [AZD0156]; conditions: max 3 µM
# How it was run: as §1
# [18] = compound: CC(=O)Nc1cccc(-n2c(=O)n(C3CC3)c(=O)c3c(Nc4ccc(I)cc4F)n(C)c(=O)c(C)c32)c1 [Trametinib]; conditions: max 1 µM
# How it was run: as §1
# [19] = compound: C[C@@H](Nc1cc(F)cc(F)c1)c1cc(C(=O)N(C)C)cc2c(=O)cc(N3CCOCC3)oc12 [AZD8186]; conditions: max 3 µM
# How it was run: as §1
# [20] = compound: COc1cccc(OCCCN)c1-c1cc(Nc2cnc(C#N)cn2)n[nH]1 [Prexasertib]; conditions: max 1 µM
# How it was run: as §1
# [21] = compound: CCN(CCO)CCCOc1ccc2c(Nc3cc(CC(=O)Nc4cccc(F)c4)[nH]n3)ncnc2c1 [AZD2811]; conditions: max 1 µM
# How it was run: as §1
# [22] = compound: CC(=O)c1c(C)c2cnc(Nc3ccc(N4CCNCC4)cn3)nc2n(C2CCCC2)c1=O [Palbociclib]; conditions: max 10 µM
# How it was run: as §1
# [23] = compound: Cc1cc2ncnn2cc1Nc1ncc2c(n1)n(C1CCOCC1)c(=O)n2C [AZD7648]; conditions: max 10 µM
# How it was run: as §1
# [24] = compound: COc1cc(Nc2ncc3c(n2)-c2ccc(Cl)cc2C(c2c(F)cccc2OC)=NC3)ccc1C(=O)O [Alisertib]; conditions: max 10 µM
# How it was run: as §1
# [25] = compound: C[C@@H]1COCCN1C2=NC(=NC(=C2)C3(CC3)[S@](=N)(=O)C)C4=C5C=CNC5=NC=C4 [AZD6738]; conditions: max 10 µM
# How it was run: as §1
# [26] = compound: Cc1nc(-c2cn3c(n2)-c2ccc(-c4cnn(C(C)(C)C(N)=O)c4)cc2OCC3)n(C(C)C)n1 [Taselisib]; conditions: max 10 µM
# How it was run: as §1
# [27] = compound: COc1cccc2c1C(=O)c1c(O)c3c(c(O)c1C2=O)C[C@@](O)(C(=O)CO)C[C@@H]3O[C@H]1C[C@H](N)[C@H](O)[C@H](C)O1 [Doxorubicin]; conditions: max 1 µM
# How it was run: as §1
Cell Line,"IC50, cell viability 72 h [1]","IC50, cell viability 72 h [2]","IC50, cell viability 72 h [3]","IC50, cell viability 72 h [4]","IC50, cell viability 72 h [5]","IC50, cell viability 72 h [6]","IC50, cell viability 72 h [7]","IC50, cell viability 72 h [8]","IC50, cell viability 72 h [9]","IC50, cell viability 72 h ([10]; max 10 µM)","IC50, cell viability 72 h [11]","IC50, cell viability 72 h [12]","IC50, cell viability 72 h [13]","IC50, cell viability 72 h [14]","IC50, cell viability 72 h [15]","IC50, cell viability 72 h ([16]; max 10 µM)","IC50, cell viability 72 h [17]","IC50, cell viability 72 h [18]","IC50, cell viability 72 h [19]","IC50, cell viability 72 h [20]","IC50, cell viability 72 h [21]","IC50, cell viability 72 h [22]","IC50, cell viability 72 h [23]","IC50, cell viability 72 h [24]","IC50, cell viability 72 h [25]","IC50, cell viability 72 h [26]","IC50, cell viability 72 h [27]","IC50, cell viability 72 h ([10]; max 3 µM)","IC50, cell viability 72 h ([16]; max 3 µM)"
ARH-77 (Non-Cancerous),8040 nM,61.8 nM,> 1 nM,> 1000 nM,189 nM,> 10000 nM,233 nM,> 10000 nM,> 300 nM,> 10000 nM,> 1000 nM,229 nM,6.68 nM,100 nM,> 10000 nM,1760 nM,1790 nM,> 1000 nM,1270 nM,15.5 nM,> 1000 nM,> 10000 nM,> 10000 nM,1170 nM,1850 nM,528 nM,143 nM,,
PA-1 (Ovarian Carcinoma),5150 nM,41.1 nM,> 1 nM,> 1000 nM,543 nM,> 10000 nM,30.2 nM,> 10000 nM,> 300 nM,> 10000 nM,> 1000 nM,80.7 nM,19.6 nM,> 1000 nM,3090 nM,941 nM,> 3000 nM,869 nM,1060 nM,187 nM,> 1000 nM,1620 nM,> 10000 nM,238 nM,3170 nM,248 nM,209 nM,,
A498 (Kidney Carcinoma),> 10000 nM,> 1000 nM,> 1 nM,> 1000 nM,1690 nM,> 10000 nM,> 2000 nM,> 10000 nM,> 300 nM,> 10000 nM,> 1000 nM,> 1000 nM,> 300 nM,> 1000 nM,> 10000 nM,4660 nM,> 3000 nM,> 1000 nM,425 nM,201 nM,> 1000 nM,> 10000 nM,> 10000 nM,> 10000 nM,> 10000 nM,9450 nM,> 1000 nM,,
CAL-29 (Bladder Carcinoma),> 10000 nM,> 1000 nM,> 1 nM,> 1000 nM,762 nM,> 10000 nM,> 2000 nM,> 10000 nM,> 300 nM,> 10000 nM,> 1000 nM,> 1000 nM,14.3 nM,> 1000 nM,> 10000 nM,> 10000 nM,> 3000 nM,> 1000 nM,> 3000 nM,41.8 nM,> 1000 nM,> 10000 nM,> 10000 nM,> 10000 nM,6080 nM,218 nM,> 1000 nM,,
SK-MES-1 (Squamous Cell Lung Carcinoma),6630 nM,> 1000 nM,> 1 nM,> 1000 nM,1360 nM,> 10000 nM,> 2000 nM,> 10000 nM,> 300 nM,> 10000 nM,> 1000 nM,> 1000 nM,30.5 nM,> 1000 nM,> 10000 nM,> 10000 nM,> 3000 nM,178 nM,> 3000 nM,60.5 nM,> 1000 nM,> 10000 nM,> 10000 nM,> 10000 nM,8000 nM,4880 nM,> 1000 nM,,
GI-ME-N (Neuroblastoma),> 10000 nM,> 1000 nM,> 1 nM,> 1000 nM,2220 nM,> 10000 nM,> 2000 nM,> 10000 nM,> 300 nM,> 10000 nM,> 1000 nM,> 1000 nM,> 300 nM,> 1000 nM,> 10000 nM,> 10000 nM,> 3000 nM,> 1000 nM,> 3000 nM,731 nM,> 1000 nM,> 10000 nM,> 10000 nM,> 10000 nM,> 10000 nM,> 10000 nM,> 1000 nM,,
A549 (Lung Adenocarcinoma),2750 nM,95.2 nM,> 1 nM,> 1000 nM,2460 nM,1050 nM,170 nM,> 10000 nM,> 300 nM,> 10000 nM,> 1000 nM,> 1000 nM,70 nM,> 1000 nM,6620 nM,6930 nM,> 3000 nM,29.7 nM,> 3000 nM,> 1000 nM,777 nM,8160 nM,> 10000 nM,2340 nM,6070 nM,1720 nM,309 nM,,
Hs-445 (Non-Cancerous),> 10000 nM,> 1000 nM,> 1 nM,> 1000 nM,134 nM,> 10000 nM,> 2000 nM,> 10000 nM,> 300 nM,> 10000 nM,> 1000 nM,213 nM,3.33 nM,224 nM,> 10000 nM,3880 nM,> 3000 nM,> 1000 nM,> 3000 nM,3.9 nM,> 1000 nM,> 10000 nM,> 10000 nM,> 10000 nM,2090 nM,9180 nM,146 nM,,
BT-483 (Breast Carcinoma),,,,,> 3000 nM,,,,,,,,,,,,> 3000 nM,,,,,,,,,,,> 3000 nM,> 3000 nM
